Reference: patent US4500526A, “Cephalosporin derivatives” (Bristol-Myers Company, priority 1983, dated 1985)
≈ marks a conversion by molar mass, not a printed value. Where two headings read alike, the source gives them in different places.

Key:
[1] = test system: Penicillinsensitive S. aureus (5 strains); test: MIC, two-fold serial agar dilution, group (G+)-Ia; type: cell-based; details: Staphylococcus aureus, read-out: Geometric Mean of MIC
Procedure: (§1) In the primary evaluation of the compounds of this invention, the Minimum Inhibitory Concentrations (MIC's) of the compounds were determined by the two-fold serial agar dilution method in Mueller-Hinton agar against 32 strains of test organisms in six groups. The sample weights of the test compounds were adjusted according to the purity of each compound, so as to give a more accurate measure of the MIC's.
(G+)Ia: Penicillinsensitive S. aureus (5 strains)

[2] = test system: Penicillinresistant S. aureus (5 strains); test: MIC, two-fold serial agar dilution, group (G+)-Ib; type: cell-based; details: Staphylococcus aureus, read-out: Geometric Mean of MIC
Procedure: as §1
(G+)Ib: Penicillinresistant S. aureus (5 strains)

[3] = test system: Cephalothinsensitive E. coli (2 strains), Kl. pneumoniae (1 strain) and Pr. mirabilis (2 strains); test: MIC, two-fold serial agar dilution, group (G-)-Ia; type: cell-based; details: 5 strains, Mueller-Hinton agar, read-out: Geometric Mean of MIC
Procedure: as §1
(G-)Ia: Cephalothinsensitive E. coli (2 strains), Kl. pneumoniae (1
strain) and Pr. mirabilis (2 strains)

[4] = test system: Cephalothinresistant E. coli (3 strains) and Kl. pneumoniae (3 strains); test: MIC, two-fold serial agar dilution, group (G-)-Ib; type: cell-based; details: Escherichia coli, read-out: Geometric Mean of MIC
Procedure: as §1
(G-)Ib: Cephalothinresistant E. coli (3 strains) and Kl. pneumoniae (3

[5] = test system: M. morganii (1 strain), Ent. cloacae (2 strains) and Ser. marcescens (2 strains); test: MIC, two-fold serial agar dilution, group (G-)-II; type: cell-based; details: read-out: Geometric Mean of MIC
Procedure: as §1
(G-)II: M. morganii (1 strain), Ent. cloacae (2 strains) and Ser.

[6] = test system: Ps. aeruginosa (6 strains); test: MIC, two-fold serial agar dilution, group (G-)-III; type: cell-based; details: Pseudomonas aeruginosa; (G-)-III, 6 strains, Mueller-Hinton agar; read-out: Geometric Mean of MIC
Procedure: as §1
(G-)III: Ps. aeruginosa (6 strains)

[7] = Mouse blood levels after single intramuscular injection; type: in vivo, mice
Procedure: The absorption of some of the preferred compounds were determined in mice following a single intramuscular injection of the test compound (dissolved in 0.1M phosphate buffer; pH 7) at a dosage of 20 mg/kg. Blood samples were collected from the orbital sinuses into heparinized capillary tubes and assayed in Nutrient Agar (pH 6.6) using E. coli Ess-22-31 as the test organism. The blood levels at various time intervals, the half-life values (t1/2) and the areas under the curve (AUC) are shown in Table 2.

E. coli Juhl = test: Median protective dose in infected mice; type: in vivo; details: Escherichia coli, im, immediately after intraperitoneal challenge, read-out: PD50
Procedure: (§2) The median protective dose (PD50) of some of the preferred compounds against various microorganisms was determined in mice by intramuscular administration of the test compound immediately after an intraperitoneal bacterial challenge.

P. aeruginosa A9843 = test: Median protective dose in infected mice; type: in vivo; details: Pseudomonas aeruginosa, im, immediately after intraperitoneal challenge, read-out: PD50
Procedure: as §2

S. aureus Smith = test: Median protective dose in infected mice; type: in vivo; details: Staphylococcus aureus, im, immediately after intraperitoneal challenge, read-out: PD50
Procedure: as §2

[8] = (G+)-Ib, 5 strains, Mueller-Hinton agar
[9] = (G-)-II, 5 strains, Mueller-Hinton agar
[10] = (G+)-Ia, 5 strains, Mueller-Hinton agar

Row | SMILES | MIC [2, 8] [µg/mL] | MIC [3] [µg/mL] | MIC [4] [µg/mL] | MIC [5, 9] [µg/mL] | MIC [6] [µg/mL] | AUC ([7]; in vivo, im, 20 mg/kg) [ng·h/mL] | concentration at 10 min ([7]; in vivo, im, 20 mg/kg) [ng/mL] | concentration at 20 min ([7]; in vivo, im, 20 mg/kg) [ng/mL] | concentration at 0.5 h ([7]; in vivo, im, 20 mg/kg) [ng/mL] | concentration at 40 min ([7]; in vivo, im, 20 mg/kg) [ng/mL] | concentration at 50 min ([7]; in vivo, im, 20 mg/kg) [ng/mL] | concentration at 1 h ([7]; in vivo, im, 20 mg/kg) [ng/mL] | concentration at 1.5 h ([7]; in vivo, im, 20 mg/kg) [ng/mL] | concentration at 2 h ([7]; in vivo, im, 20 mg/kg) [ng/mL] | half-life ([7]; in vivo, im, 20 mg/kg) [min] | ED50 (E. coli Juhl) [mg/kg] | ED50 (P. aeruginosa A9843) [mg/kg] | ED50 (S. aureus Smith) [mg/kg] | MIC [1, 10] [µg/mL] | MIC [5] [µg/mL] | also measured
1 | CO/N=C(\C(=O)NC1C(=O)N2C(C(=O)[O-])=C(C[n+]3ccc4sc(C(=O)O)nc4c3)CS[C@H]12)c1csc(N)n1 (stereo partly shown) [Iv, 7-[(Z)-2-(2-Aminothiazol-4-yl)-2-methoxyiminoacetamido]-3-(2-carboxy-5-thiazolo[4,5-c]pyridinio)methyl-3-cephem-4-carboxylate] | 3.1 (≈ 5.39 µM) | 0.014 (≈ 0.0243 µM) | 1.2 (≈ 2.08 µM) | 0.69 (≈ 1.2 µM) | 5.7 (≈ 9.9 µM) | 10000 | 17000 | 16000 | 10000 | 5900 | 4300 | 3000 | 1200 | < 200 | 19 | 0.024 | 21 | 2.6 | – | – | MIC [1]: 1.6 µg/mL (≈ 2.78 µM)
2 | C=CCO/N=C(\C(=O)NC1C(=O)N2C(C(=O)[O-])=C(C[n+]3ccc4scnc4c3)CSC12)c1csc(N)n1 (stereo not shown) [Ic, 7-[(Z)-2-Allyloxyimino-2-(2-aminothiazol-4-yl)acetamido]-3-{(5-thiazolo[4,5-c]pyridino)methyl}-3-cephem-4-carboxylate] | 0.56 (≈ 1 µM) | 0.053 (≈ 0.095 µM) | 0.44 (≈ 0.789 µM) | – | 3.9 (≈ 6.99 µM) | 12000 | 18000 | 14000 | 10000 | 8200 | 5800 | 3600 | 1900 | 1300 | 28 | 0.048 | 8.6 | 1.1 | 0.32 (≈ 0.574 µM) | 0.66 (≈ 1.18 µM) | –
3 | CO/N=C(\C(=O)NC1C(=O)N2C(C(=O)[O-])=C(C[n+]3ccc4sc(NC(=O)CN)nc4c3)CS[C@H]12)c1csc(N)n1 (stereo partly shown) [Iq, 7-[(Z)-2-(2-Aminothiazol-4-yl)-2-methoxyiminoacetamido]-3-(2-glycylamino-5-thiazolo[4,5-c]pyridinio)methyl-3-cephem-4-carboxylate] | 2.4 (≈ 3.98 µM) | 0.038 (≈ 0.0629 µM) | 0.61 (≈ 1.01 µM) | – | 10 (≈ 16.6 µM) | 16000 | 15000 | 17000 | 12000 | 11000 | 9900 | 8800 | 3400 | 1500 | 28 | 0.015 | 12 | 1.8 | 0.92 (≈ 1.52 µM) | 0.69 (≈ 1.14 µM) | –
4 | CO/N=C(\C(=O)NC1C(=O)N2C(C(=O)[O-])=C(C[n+]3ccc4sc(N)nc4c3)CSC12)c1csc(N)n1 (stereo not shown) [In, 7-[(Z)-2-(2-Aminothiazol-4-yl)-2-methoxyiminoacetamido]-3-[{5-(2-aminothiazolo[4,5-c]pyridinio)}methyl]-3-cephem-4-carboxylate] | 0.72 (≈ 1.32 µM) | 0.01 (≈ 0.0183 µM) | 0.096 (≈ 0.176 µM) | 0.17 (≈ 0.311 µM) | 1.9 (≈ 3.48 µM) | 11000 | 14000 | 14000 | 7600 | 7000 | 4400 | 3900 | 2900 | 1000 | 29 | < 0.01 | 2.8 | 0.9 | 0.32 (≈ 0.585 µM) | – | –
5 | Nc1nc(/C(=N/OC2(C(=O)O)CCC2)C(=O)NC2C(=O)N3C(C(=O)[O-])=C(C[n+]4ccc5sc(N)nc5c4)CS[C@H]23)cs1 (stereo partly shown) [Ik, 7-[(Z)-2-(2-Aminothiazol-4-yl)-2-(1-carboxycyclobut-1-oxyimino)-acetamido]-3-(2-amino-5-thiazolo[4,5-c]pyridinio)methyl-3-cephem-4-carboxylate] | 3.3 (≈ 5.23 µM) | 0.015 (≈ 0.0238 µM) | 0.36 (≈ 0.571 µM) | 0.27 (≈ 0.428 µM) | 1.4 (≈ 2.22 µM) | – | 20000 | 16000 | 11000 | 8200 | 5200 | 4100 | 1800 | 670 | 22 | 0.046 | 5.5 | 3 | 1.4 (≈ 2.22 µM) | – | AUC ([7]; blood, mice, 20 mg/kg im, read-out: AUC): 13000 ng·h/mL
6 | CO/N=C(\C(=O)NC1C(=O)N2C(C(=O)[O-])=C(C[n+]3ccc4sc(C=O)nc4c3)CSC12)c1csc(N)n1 (stereo not shown) [Iw, 7-[(Z)-2-(2-Aminothiazol-4-yl)-2-methoxyiminoacetamido]-3-(2-formylthiazolo[4,5-c]pyridinio)methyl-3-cephem-4-carboxylate] | – | 0.016 (≈ 0.0286 µM) | 0.17 (≈ 0.304 µM) | – | 1.7 (≈ 3.04 µM) | 11000 | 20000 | 19000 | 8900 | 6600 | 3900 | 2000 | 1000 | 480 | 19 | 0.015 | 4.7 | 1.3 | 0.53 (≈ 0.947 µM) | 0.2 (≈ 0.357 µM) | MIC [2]: 1.6 µg/mL (≈ 2.86 µM)
7 | C#CCO/N=C(\C(=O)NC1C(=O)N2C(C(=O)[O-])=C(C[n+]3ccc4sc(N)nc4c3)CS[C@H]12)c1csc(N)n1 (stereo partly shown) [If, 7-[(Z)-2-(2-Aminothiazol-4-yl)-2-(propargyloxyimino)acetamido]-3-(2-amino-5-thiazolo[4,5-c]pyridinio)methyl-3-cephem-4-carboxylate] | – | 0.029 (≈ 0.0508 µM) | 0.4 (≈ 0.701 µM) | 0.35 (≈ 0.613 µM) | 2.1 (≈ 3.68 µM) | 9100 | 14000 | 11000 | 7300 | 4200 | 3600 | 3300 | 2000 | 1200 | 34 | 0.013 | 3.3 | 0.36 | 0.3 (≈ 0.526 µM) | – | MIC [2]: 0.8 µg/mL (≈ 1.4 µM)
